This is an account of results in patent US11993573B2, “Chromane-substituted, tetrahydroquinoline-substituted and thiochromane-substituted heteroarotinoids as anti-cancer agents” (THE BOARD OF REGENTS FOR OKLAHOMA STATE UNIVERSITY, priority 2018, dated 2024).

The experiment has as its system human ovarian cancer cell line A2780. The experiment can be described thus: Growth inhibition assay (CellTiter 96 Non-Rad Cell Proliferation Assay). The class given is cell-based. To be noted: for efficacy compared with SHetA2 / IC50 compared with SHetA2: comparison in words; for IC50 compared with SHetA2: 'exceeded' = lower IC50 in Table 1. The procedure:
To illustrate the general activity of the compounds inhibiting growth of human […] ovarian cancer cells, selected compounds were synthesized and evaluated. The compounds were dissolved in DMSO at a concentration of 0.01 M. The human ovarian cancer cell line A2780 was plated in 96-well tissue culture dishes at a concentration of 3000 cells per well in RPMI medium supplemented with 10% fetal bovine serum and a mixture of antibiotics and antimycotics. The next day, the cultures were treated in triplicate with compound concentrations ranging from 2 μM to 8 μM increments. For compound 12, additional experiments were performed with concentrations of 10 μM and a series of two-fold dilutions to 156 nM. Control cultures were treated with DMSO solvent only. After 72 h of incubation, the […] 96® Non-Rad Cell Proliferation Assay (Promega) was used to quantify the remaining metabolically living cells. After subtracting blank values, the optical density (OD) readouts of the assay for the treated cultures were normalized with the average OD of the control cultures. For each compound, the experiment was repeated at least once, resulting in a minimum of 6 dose-response curves. For SHetA2, 24 response curves were available for statistical fitting parameters. A custom program was written in GNU Octave, a free software compatible with Matlab, to fit the dose-response curves with a four-parameter sigmoid function, extracting the IC50 and efficacy (the maximal % growth inhibition) parameters.
To illustrate the useful biological activity of these chroman-substituted and tetrahydroquinoline-substituted heteroarotinoids, the compounds were screened against human […] ovarian cancer cells.

The mark [1] stands for this setting: Homo sapiens, A2780, Table 3, 14 series (thiochroman), A2780.
Where [2] appears, read: Homo sapiens, A2780, Table 3, 14 series, A2780, read-out: % Efficacy.
The mark [3] stands for this setting: Homo sapiens, A2780, 72 h, Table 1, chroman-containing series.
The mark [4] stands for this setting: Homo sapiens, A2780, 72 h, Table 1, maximal % growth inhibition, A2780, 72 h, read-out: Efficacy.
The mark [5] stands for this setting: Table 2, tetrahydroquinoline-containing members, A2780, 72 h.
Where [6] appears, read: Table 2, maximal % growth inhibition, A2780, 72 h.

Like-named read-outs stand apart in the source and are kept apart here.

As a reminder, the IC50 is the concentration that inhibits the measured activity by half. Lower therefore signals greater potency. `CC1(C)CC(C)(C)c2cc(NC(=S)NNC(=O)c3ccccc3)ccc2S1` [Compound 14r, 2-Benzoyl-N-(2,2,4,4-tetramethylthiochroman-6-yl)hydrazine-1-carbothioamide] showed an IC50 under setting [1] of 0.82 ± 0.21 µM. In addition, under setting [2], the Emax came to 67.9 ± 2.6%.
`CC1(C)CC(C)(C)c2cc(NC(=O)Nc3ccc(C#N)cc3)ccc2S1` [Compound 14c, 1-(4-Cyanophenyl)-3-(2,2,4,4-tetramethylthiochroman-6-yl)urea] came in with an IC50 under setting [1] of 3.93 ± 0.03 µM. Under setting [2], the Emax came to 93.3 ± 0.1%. Besides, the “efficacy compared with SHetA2” value (A2780) was “exceeded that of SHetA2 in efficacy”.
The molecule `CN1c2ccc(NC(=O)Nc3ccc(N)cc3)cc2C(C)(C)C(=O)C1(C)C` [Compound 11g, 1-(4-Aminophenyl)-3-(1,2,2,4,4-pentamethyl-3-oxo-1,2,3,4-tetrahydroquinolin-6-yl)urea] had an IC50 (Homo sapiens, A2780, 72 h, Table 2, tetrahydroquinoline-containing members) of 7.7 µM. For the same molecule, the Emax (Homo sapiens, A2780, 72 h, Table 2, maximal % growth inhibition, A2780, 72 h, read-out: Efficacy) stood at 24%.
The molecule `CC1(C)CC(C)(C)c2cc(NC(=O)Nc3ccc(C(F)(F)F)cc3)ccc2S1` [Compound 14a, 1-(2,2,4,4-Tetramethylthiochroman-6-yl)-3-(4-(trifluoromethyl)phenyl)urea] came in with an IC50 under setting [1] of 3.79 ± 0.05 µM. Besides, the Emax under setting [2] turned out to be 93.3 ± 0.1%. Also, the “efficacy compared with SHetA2” value (A2780) was “exceeded that of SHetA2 in efficacy”.
`CC1(C)CC(C)(C)c2cc(NC(=S)NNC(=O)c3ccc(OC(F)(F)F)cc3)ccc2S1` [Compound 14t, N-(2,2,4,4-Tetramethylthiochroman-6-yl)-2-(4-(trifluoromethoxy)benzoyl)hydrazine-1-carbothioamide] displayed an IC50 under setting [1] of 3.6 ± 0.18 µM. Also, the Emax under setting [2] came to 57.4 ± 0.4%.
Under setting [3], `CCC1(CC)CC(CC)(CC)c2cc(NC(=S)Nc3ccc([N+](=O)[O-])cc3)ccc2O1` [Compound 8a, 1-(4-Nitrophenyl)-3-(2,2,4,4-tetraethylchroman-6-yl)thiourea] returned an IC50 of 4.6 µM. Further, the Emax under setting [4] turned out to be 94%. Also, where the note is “A2780”, the “efficacy compared with SHetA2” value is on record as “exceeded the efficacy of SHetA2”.
In turn, `CCC1(CC)CC(C)(C)c2cc(NC(=S)Nc3ccc([N+](=O)[O-])cc3)ccc2O1` [Compound 6a, 1-(2,2-Diethyl-4,4-dimethylchroman-6-yl)-3-(4-nitrophenyl)thiourea] came in with an IC50 under setting [3] of 2.9 µM. Under setting [4], the Emax worked out at 93.9%. Also, where the note is “A2780”, the “efficacy compared with SHetA2” value was “exceeded the efficacy of SHetA2” and the “IC50 compared with SHetA2” value was “exceeded”.
`CC1(C)CC(C)(C)c2cc(NC(=S)NNc3ccccc3)ccc2S1` [Compound 14q, 2-Phenyl-N-(2,2,4,4-tetramethylthiochroman-6-yl)hydrazine-1-carbothioamide]: under setting [1], it took 7.03 ± 0.31 µM to reach half-maximal inhibition (IC50). The Emax under setting [2] turned out to be 63.6 ± 3.7%.
`CC1(C)CC(C)(C)c2cc(NC(=S)Nc3ccc(Cl)cc3)ccc2S1` [Compound 14d, 1-(4-Chlorophenyl)-3-(2,2,4,4-tetramethylthiochroman-6-yl)thiourea]: under setting [1], the IC50 was 3.17 ± 0.25 µM. Moreover, the Emax under setting [2] came out at 91.9 ± 0.5%. For the same molecule, the “efficacy compared with SHetA2” value (A2780) is on record as “exceeded that of SHetA2 in efficacy”.
Take `CC1(C)CCOc2ccc(NC(=O)Nc3ccc(C(F)(F)F)cc3)cc21` [Compound 5b]: where the note is “Table 1, chroman-containing series, A2780, 72 h”, half-maximal inhibition (IC50) was put at 5 µM. In addition, the Efficacy (Table 1, maximal % growth inhibition, A2780, 72 h) is listed as 47%.
`CN1c2ccc(NC(=S)Nc3ccc(C(F)(F)F)cc3)cc2C(C)(C)C(=O)C1(C)C` [Compound 11d] registered an IC50 under setting [5] of 3.9 µM. Further, the Efficacy under setting [6] was 90.8 (±2.0) %.
Under setting [1], `COc1ccc(NC(=S)Nc2ccc3c(c2)C(C)(C)CC(C)(C)S3)cc1` [Compound 14h, 1-(4-Methoxyphenyl)-3-(2,2,4,4-tetramethylthiochroman-6-yl)thiourea] had an IC50 of 2.78 ± 0.47 µM. Also, the Emax under setting [2] is 59.8 ± 1.2%.
`CCC1(CC)CC(C)(C)c2cc(NC(=O)Nc3ccc([N+](=O)[O-])cc3)ccc2O1` [Compound 6b, 1-(2,2-Diethyl-4,4-dimethylchroman-6-yl)-3-(4-nitrophenyl)urea] showed an IC50 under setting [3] of 2.17 µM. Also, under setting [4], the Emax worked out at 93.3%. Where the note is “A2780”, the “efficacy compared with SHetA2” value is “exceeded the efficacy of SHetA2” and the “IC50 compared with SHetA2” value is given as “exceeded”.
In the case of `CC1(C)CC(C)(C)c2cc(NC(=S)Nc3ccc(C(N)=O)cc3)ccc2S1` [Compound 14g, 4-(3-(2,2,4,4-Tetramethylthiochroman-6-yl)thioureido)benzamide], under setting [1], the IC50 stood at 3.53 ± 0.12 µM. Under setting [2], the Emax turned out to be 64.2 ± 1.8%.
For `CCC1(CC)CC(C)(C)Oc2ccc(NC(=O)Nc3ccc([N+](=O)[O-])cc3)cc21` [Compound 7c, 1-(4,4-Diethyl-2,2-dimethylchroman-6-yl)-3-(4-nitrophenyl)urea], under setting [3], half-maximal inhibition (IC50) was put at 2.05 µM. For the same molecule, the Emax under setting [4] is 93.6%. For the same molecule, where the note is “A2780”, the “efficacy compared with SHetA2” value is on record as “exceeded the efficacy of SHetA2” and the “IC50 compared with SHetA2” value is on record as “exceeded”.
Consider `CC1(C)CC(C)(C)c2cc(NC(=S)NCc3ccc(Cl)cc3)ccc2S1` [Compound 14l, 1-(4-Chlorobenzyl)-3-(2,2,4,4-tetramethylthiochroman-6-yl)thiourea], for which the IC50 under setting [1] amounted to 2.98 ± 0.44 µM. Moreover, under setting [2], the Emax is 89.4 ± 2.8%. In addition, the “efficacy compared with SHetA2” value (A2780) was “exceeded that of SHetA2 in efficacy”.
For `COc1ccc(CNC(=S)Nc2ccc3c(c2)C(C)(C)CC(C)(C)S3)cc1` [Compound 14o, 1-(4-Methoxybenzyl)-3-(2,2,4,4-tetramethylthiochroman-6-yl)thiourea] the same measures were 3.26 ± 0.43 µM, 89.6 ± 0.9% and “exceeded that of SHetA2 in efficacy”.
`CCC1(CC)CC(CC)(CC)c2cc(NC(=O)Nc3ccc([N+](=O)[O-])cc3)ccc2O1` [Compound 8b, 1-(4-Nitrophenyl)-3-(2,2,4,4-tetraethylchroman-6-yl)urea] returned an IC50 under setting [3] of 2.09 µM. The Emax under setting [4] is 91.4%. Also, under “A2780”, the “efficacy compared with SHetA2” value is on record as “exceeded the efficacy of SHetA2” and the “IC50 compared with SHetA2” value is “exceeded”.
Regarding `COc1cccc(NC(=S)Nc2ccc3c(c2)C(C)(C)CC(C)(C)S3)c1` [Compound 14i, 1-(3-Methoxyphenyl)-3-(2,2,4,4-tetramethylthiochroman-6-yl)thiourea], under setting [1], half-maximal inhibition (IC50) required 3.04 ± 0.52 µM. Besides, under setting [2], the Emax is 38.8 ± 0.04%.
Molecule `CC1(C)CC(C)(C)c2cc(NC(=S)NCc3ccc(O)cc3)ccc2S1` [Compound 14p, 1-(4-Hydroxybenzyl)-3-(2,2,4,4-tetramethylthiochroman-6-yl)thiourea] yielded an IC50 under setting [1] of 3.23 ± 0.49 µM. Under setting [2], the Emax turned out to be 56.8 ± 3.3%.
`CC1(C)CCSc2ccc(NC(=S)Nc3ccc([N+](=O)[O-])cc3)cc21` [Compound 14v, 1-(4,4-dimethyl-6-yl)-3-(4-nitrophenyl)thiourea] had an IC50 under setting [1] of 4.01 ± 0.19 µM. In addition, the Emax under setting [2] came to 93.5 ± 1.7%.
In the same order, the values of `CC1(C)CC(C)(C)c2cc(NC(=S)NNC(=O)c3cc(C(F)(F)F)cc(C(F)(F)F)c3)ccc2S1` [Compound 14u, 2-(3,5-Bis(trifluoromethyl)benzoyl)-N-(2,2,4,4-tetramethylthiochroman-6-yl)hydrazine-1-carbothioamide] are 4 ± 0.12 µM and 61.4 ± 2.9%.
Regarding `CC1(C)CC(C)(C)c2cc(NC(=S)Nc3ccc(OC(F)(F)F)cc3)ccc2S1` [Compound 14f, 1-(2,2,4,4-Tetramethylthiochroman-6-yl)-3-(4-(trifluoromethoxy)phenyl)thiourea], the IC50 under setting [1] is 3.51 ± 0.07 µM. Besides, the Emax under setting [2] came out at 95.3 ± 0.4%. Besides, the “efficacy compared with SHetA2” value (A2780) is listed as “exceeded that of SHetA2 in efficacy”.
`CN1c2ccc(NC(=S)Nc3ccc([N+](=O)[O-])cc3)cc2C(C)(C)C(O)C1(C)C` (stereo not drawn) [Compound 13b] displayed an IC50 under setting [5] of 10 µM. Besides, the Efficacy under setting [6] was 25 (±4) %.
In turn, `CC1(C)CC(C)(C)c2cc(NC(=S)Nc3ccc(C(F)(F)F)cc3)ccc2S1` [Compound 14e, 1-(2,2,4,4-Tetramethylthiochroman-6-yl)-3-(4-(trifluoromethyl)phenyl)thiourea] registered an IC50 under setting [1] of 2.86 ± 0.29 µM. In addition, the Emax under setting [2] was determined as 95.9 ± 0.6%. Moreover, where the note is “A2780”, the “efficacy compared with SHetA2” value is recorded as “exceeded that of SHetA2 in efficacy”.
Molecule `CC1(C)CCOc2ccc(NC(=S)Nc3ccc([N+](=O)[O-])cc3)cc21` [Compound 4a, 1-(4-Nitrophenyl)-3-(4,4-dimethylchroman-6-yl)thiourea] yielded an IC50 under setting [3] of 6.4 µM. Further, the Emax under setting [4] turned out to be 19%.
In turn, `CCOC(=O)c1ccc(NC(=S)Nc2ccc3c(c2)C(C)(C)CC(C)(C)O3)cc1` [Compound 2b, Ethyl 4-(3-(2,2,4,4-Tetramethylchroman-6-yl)thioureido)benzoate] displayed an IC50 under setting [3] of 4.3 µM. Besides, the Emax under setting [4] was found to be 26%.
Consider `CC1(C)CC(C)(C)c2cc(NC(=S)NNC(=O)c3ccc([N+](=O)[O-])cc3)ccc2S1` [Compound 14s, 2-(4-Nitrobenzoyl)-N-(2,2,4,4-tetramethylthiochroman-6-yl)hydrazine-1-carbothioamide], for which, under setting [1], the IC50 was found to be 3.15 ± 0.19 µM. Moreover, the Emax under setting [2] was 43.3 ± 2.9%.
